In patent publication US12144864B2, “Tubulysins and protein-tubulysin conjugates” (Regeneron Pharmaceuticals, Inc., priority 2018, dated 2024):
Read-outs that look alike come from different tables or passages of the source.

How the values were obtained:
C4-2 cells = experiment: Cell-based killing assay of payloads (CellTiter-Glo), C4-2 cells; set-up: species or system human; settings: 5-day incubation; for IC50: Homo sapiens, C4-2, 120 h, average ± SD where replicates; for C4-2 % Kill: at maximum concentration tested (100 − % viable cells)
Experimental: (§1) To test the ability of the disclosed tubulysin payloads to kill human cell lines, an in vitro cytotoxicity assay was performed. In vitro cytotoxicity of the disclosed payloads, as well as reference compounds, were evaluated using the CellTiter-Glo Assay Kit (Promega, Cat #G7573), in which the quantity of ATP present is used to determine the number of viable cells in culture. For the assay, C4-2, HEK293, or T47D cells were seeded at 4000 cells/well on Nunclon white 96-well plates in complete growth medium (DME high glucose:Ham's F12 at 4:1, 10% FBS, 100 units/ml Penicillin, 100 ug/ml streptomycin, 53 ug/ml glutatmine, 10 ug/ml insulin, 220 ng/ml biotin, 12.5 pg/ml T3, 12.5 ug/ml Adenine, 4 ug/ml transferrin for C42 cells; DME high glucose, 10% FBS, 100 units/ml Penicillin, 100 ug/ml streptomycin, 53 ug/ml glutatmine for HEK293; RPMI, 10% FBS, 100 units/ml Penicillin, 100 ug/ml streptomycin, 53 ug/ml glutatmine, 10 ug/ml insulin, 10 mM HEPEs, 200 nM Sodium Pyruvate for T47D cells) and grown overnight at 37° C. in 5% CO2. For cell viability curves, 1:3 serially diluted payloads were added to the cells at final concentrations ranging from 100 nM to […], including a no treatment control group, and were then incubated for 5 days. After the 5-day incubation, cells were incubated at room temperature with 100 μL of CellTiter-Glo reagents for 10 minutes. Relative luminescence units (RLU) were determined on a Victor plate reader (PerkinElmer). The IC50 values were determined from a four-parameter logistic equation over a 10-point response curve (GraphPad Prism). All IC50 values are expressed in molar (M) concentration. The percent cell killing (% kill) at the maximum concentration tested was estimated from the following formula (100−% viable cells). Averages±standard deviation (SD) are included where replicate experiments were performed.

HCT15 cells = experiment: cells; type: cell-based, human; settings: HCT15 cells; for HCT-15 + verapamil % Kill / HCT-15 % Kill: maximum % cell killing
Experimental: as §1
In vitro cytotoxicity of the disclosed payloads as well as reference compounds were evaluated similarly as described above except using 1000 HCT15 cells, a colorectal carcinoma cell line, in growth medium (RPMI, 10% FBS, 100 units/ml Penicillin, 100 ug/ml streptomycin, 53 ug/ml glutatmine) with or without 5 ug/mL of Verapamil.

HCT-15 cells = experiment: Cytotoxicity in panel of MDR cell lines, HCT-15 (72 h and 144 h); type: cell-based, human; settings: for IC50: Homo sapiens
Experimental: as §1
(§2) To further test the ability of the disclosed tubulysin payloads, a cytotoxicity assay was performed using a panel of multidrug resistant (MDR) cell lines. In vitro cytotoxicity of the disclosed payloads as well as reference compounds were similarly evaluated as described above except using HCT-15 cells, a colorectal carcinoma cell line; H69AR, a doxorubicin resistant MDR derivative of the small cell lung cancer carcinoma cell line NCI-H69; MES-SA/MX2, a mitoxantrone resistant MDR derivative of the uterine sarcoma cell line MES-SA; and HL60/MX2, a mitoxantrone resistant MDR derivative of the acute promyelocytic leukemia cell line HL60. In these assays, cytotoxicity was evaluated in normal growth media (RPMI, 10% FBS, 100 units/ml Penicillin, 100 ug/ml streptomycin, and 53 ug/ml glutatmine for HCT-15 and HL60/MX2; RPMI, 20% FBS, 100 units/ml Penicillin, 100 ug/ml streptomycin, and 53 ug/ml glutatmine for H69-AR; Waymouths's:McCoy's (1:1), 10% FBS, 100 units/ml Penicillin, 100 ug/ml streptomycin, and 53 ug/ml glutatmine for MES-SA/MX2) with 1000 cells per well following 72 h and 144 h incubation with payloads.

MES-SA/MX2 cells = experiment: Cytotoxicity in panel of MDR cell lines, MES-SA/MX2 (72 h and 144 h); type: cell-based, human; settings: for IC50: Homo sapiens
Experimental: as §1, §2

H69AR cells = experiment: Cytotoxicity in panel of MDR cell lines, H69AR (72 h and 144 h); type: cell-based, human; settings: for IC50: Homo sapiens
Experimental: as §1, §2

HL60/MX2 cells = experiment: Cytotoxicity in panel of MDR cell lines, HL60/MX2 (72 h and 144 h); type: cell-based, human; settings: for IC50: Homo sapiens
Experimental: as §1, §2

[1] = with 5 ug/mL Verapamil, read-out: HCT-15 + verapamil IC50
[2] = Homo sapiens, HCT-15, without Verapamil, read-out: HCT-15 IC50
[3] = 72 h incubation, read-out: HCT-15 IC50 72 h
[4] = 144 h incubation, read-out: HCT-15 IC50 144 h
[5] = 72 h incubation, read-out: MES-SA/MX2 IC50 72 h
[6] = 144 h incubation, read-out: MES-SA/MX2 IC50 144 h
[7] = 72 h incubation, read-out: H69AR IC50 72 h
[8] = 144 h incubation, read-out: H69AR IC50 144 h
[9] = 72 h incubation, read-out: HL60/MX2 IC50 72 h
[10] = 144 h incubation, read-out: HL60/MX2 IC50 144 h

| Structure (SMILES) | IC50 (C4-2 cells) [pM] | C4-2 % Kill (C4-2 cells) [%] | HCT-15 + verapamil % Kill (HCT15 cells; with 5 ug/mL Verapamil) [%] | IC50 (HCT15 cells; [1]) [pM] | HCT-15 % Kill 72 h (HCT-15 cells; 72 h incubation) [%] | HCT-15 % Kill 144 h (HCT-15 cells; 144 h incubation) [%] | IC50 (HCT-15 cells; [3]) [pM] | IC50 (HCT-15 cells; [4]) [pM] | MES-SA/MX2 % Kill 72 h (MES-SA/MX2 cells; 72 h incubation) [%] | MES-SA/MX2 % Kill 144 h (MES-SA/MX2 cells; 144 h incubation) [%] | IC50 (MES-SA/MX2 cells; [5]) [pM] | IC50 (MES-SA/MX2 cells; [6]) [pM] | H69AR % Kill 72 h (H69AR cells; 72 h incubation) [%] | H69AR % Kill 144 h (H69AR cells; 144 h incubation) [%] | IC50 (H69AR cells; [7]) [pM] | IC50 (H69AR cells; [8]) [pM] | HL60/MX2 % Kill 72 h (HL60/MX2 cells; 72 h incubation) [%] | HL60/MX2 % Kill 144 h (HL60/MX2 cells; 144 h incubation) [%] | IC50 (HL60/MX2 cells; [9]) [pM] | IC50 (HL60/MX2 cells; [10]) [pM] | further results |
| --- | --- | --- | --- | --- | --- | --- | --- | --- | --- | --- | --- | --- | --- | --- | --- | --- | --- | --- | --- | --- | --- |
| CC[C@H](C)[C@H](NC(=O)[C@H]1CCCCN1C)C(=O)N(CCCCc1cn(Cc2ccccc2)nn1)[C@H](C[C@@H](OC(C)=O)c1nc(C(=O)N[C@@H](Cc2ccc(N)cc2)CC(C)(C)C(=O)O)cs1)C(C)C [IVo, (S)-4-(2-((1R,3R)-1-Acetoxy-3-((2S,3S)—N-(4-(1-benzyl-1H-1,2,3-triazol-4-yl)butyl)-3-methyl-2-((R)-1-methylpiperidine-2-carboxamido)pentanamido)-4-methylpentyl)thiazole-4-carboxamido)-5-(4-aminophenyl)-2,2-dimethylpentanoic acid] | 262 | 93.4 | 97.6 | 109 | 97.3 | 99.7 | 247 | 348 | 98.9 | 99.9 | 1120 | 2960 | 96.2 | 99.1 | 779 | 1270 | 98.1 | 100 | 37.6 | < 15 | HCT-15 % Kill (HCT15 cells; without Verapamil): 98.6%; IC50 (HCT15 cells; [2]): 370 pM |
| CC[C@H](C)[C@H](NC(=O)[C@H]1CCCCN1C)C(=O)N(CCCCc1cn(-c2ccccc2)nn1)[C@H](C[C@@H](OC(C)=O)c1nc(C(=O)N[C@@H](Cc2ccc(N)cc2)CC(C)(C)C(=O)O)cs1)C(C)C [IVp, (S)-4-(2-((1R,3R)-1-acetoxy-4-methyl-3-((2S,3S)-3-methyl-2-((R)-1-methylpiperidine-2-carboxamido)-N-(4-(1-phenyl-1H-1,2,3-triazol-4-yl)butyl)pentanamido)pentyl)thiazole-4-carboxamido)-5-(4-aminophenyl)-2,2-dimethylpentanoic acid] | 177 | 94.2 | 97.6 | 86.4 | 97.6 | 99.7 | 181 | 231 | 98.8 | 99.9 | 792 | 1660 | 96.3 | 99.2 | 644 | 1120 | 97.5 | 99.9 | 23.7 | < 15 | HCT-15 % Kill (HCT15 cells; without Verapamil): 98.7%; IC50 (HCT15 cells; [2]): 239 pM |
| [2H]c1cc(C[C@@H](CC(C)(C)C(=O)O)NC(=O)c2csc([C@@H](C[C@H](C(C)C)N(CCCCCC)C(=O)[C@@H](NC(=O)[C@H]3CCCCN3C)[C@@H](C)CC)OC(C)=O)n2)cc([2H])c1N [IVs, (S)-4-(2-((1R,3R)-1-Acetoxy-3-((2S,3S)—N-hexyl-3-methyl-2-((R)-1-methylpiperidine-2-carboxamido)pentanamido)-4-methylpentyl)thiazole-4-carboxamido)-5-(4-aminophenyl-3,5-d2)-2,2-dimethylpentanoic acid] | 49.9 | 93.8 | 98.8 | 45.9 | 97.6 | 99.7 | 37.1 | 50.1 | 99.2 | 100 | 102 | 210 | 96.8 | 99.4 | 161 | 281 | 98.4 | 100 | < 15 | < 15 | HCT-15 % Kill (HCT15 cells; without Verapamil): 99.1%; IC50 (HCT15 cells; [2]): 108 pM |
| CCCCCCN(C(=O)[C@@H](NC(=O)[C@H]1CCCCN1C)[C@@H](C)CC)[C@H](C[C@@H](OC(C)=O)c1nc(C(=O)NC(Cc2ccc(F)c(NC)c2)CC(C)(C)C(=O)O)cs1)C(C)C (stereo partly drawn) [IVt, 4-(2-((1R,3R)-1-acetoxy-3-((2S,3S)—N-hexyl-3-methyl-2-((R)-1-methylpiperidine-2-carboxamido)pentanamido)-4-methylpentyl)thiazole-4-carboxamido)-5-(4-fluoro-3-(methylamino)phenyl)-2,2-dimethylpentanoic acid] | 110 | 94.2 |  |  | 97.6 | 99.8 | 143 | 180 | 99.3 | 100 | 447 | 740 | 96.3 | 99.3 | 486 | 819 | 98.4 | 100 | < 15 | < 15 |  |
| CCCCCCN(C(=O)[C@@H](NC(=O)[C@H]1CCCCN1C)[C@@H](C)CC)[C@H](C[C@@H](OC(C)=O)c1nc(C(=O)NC(Cc2ccc(F)c(N)c2)CC(C)(C)C(=O)O)cs1)C(C)C (stereo partly drawn) [IVu, 4-({2-[(1R,3R)-1-(Acetyloxy)-3-[(2S,3S)—N-hexyl-3-methyl-2-{[(2R)-1-methylpiperidin-2-yl]formamido}pentanamido]-4-methylpentyl]-1,3-thiazol-4-yl}formamido)-5-(3-amino-4-fluorophenyl)-2,2-dimethylpentanoic acid] | 114 | 93.9 |  |  | 97.9 | 99.8 | 134 | 242 | 98.8 | 100 | 535 | 1210 | 96.4 | 99 | 634 | 1040 | 98 | 99.9 | < 15 | < 15 |  |
